In data set [1] the test system is LNCaP xenograft. Particulars: mouse, in vivo.
Method: (§1) Methods: LNCaP cells were injected to the Male CB17 SCID mice (6-8 weeks old). Once tumor size reached target value, the mice were randomized into three groups with 6-8 mice per group. […] The mice weight and tumor volume were periodically recorded. Finally, the tumors were harvested.
In data set [2] the target is T1, AR-LBD dimer (Homo sapiens, UniProt P10275).
T1 sequence (P10275 669-900 limits assumed): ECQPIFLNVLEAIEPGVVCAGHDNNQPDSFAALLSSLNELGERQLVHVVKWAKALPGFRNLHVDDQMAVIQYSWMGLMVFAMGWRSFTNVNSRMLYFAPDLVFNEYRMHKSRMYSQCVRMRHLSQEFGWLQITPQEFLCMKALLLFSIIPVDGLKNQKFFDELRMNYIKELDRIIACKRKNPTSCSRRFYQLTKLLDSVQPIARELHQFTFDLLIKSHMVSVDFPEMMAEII
Briefly: Small-angle X-ray scattering (SAXS) of AR-LBD dimerization. Conditions: AR-LBD 35 μM, DHT 10 μM, Enzalutamide 105 μM, A-1 105 μM. The source says:
Detection principles: SAXS is a vital technique for detecting conformational changes of biomacromolecule by quantitatively evalucate the overall dimension and shape silhouette of biomacromolecule.
The SAXS scattering signal were collected for 20 frames (1 second exposure time) using the BL19U2 beamline. The ATSAS software were applied to analysis the results.

The target of data set [3] is T2, AR-LBD protein (Homo sapiens, UniProt P10275).
T2 construct: The biotinylated AR-LBD protein was dissolved in the buffer
T2 sequence (P10275 669-900 limits assumed): T1 sequence (P10275 669-900 limits assumed)
Nature of the data set: Biolayer interferometry (BLI) direct interaction. Conditions: A-1 2.06-500 μM, biotinylated AR-LBD. It counts as binding. As to the method:
Detection principles: The BLI technique can detect the interactions by monitoring the change of the interference spectrum in the sensor surface. BLI can quantitatively determine the binding and dissociation processes of a ligand to the target loaded sensor, by analyzing changes in the interference spectrum. Therefore, the direct interaction between ligand and target protein can be quantitatively detected.
Methods: The biotinylated AR-LBD protein was dissolved in the buffer of phosphate-buffered saline with 1% dimethyl sulfoxide. 200 μL of AR-LBD protein in the buffer was loaded onto sensors and equilibrated for 300 seconds. The kinetics of association between AR-LBD and A-1 were determined by soaking the AR-LBD loaded sensors into wells containing different concentrations of A-1 for 300 seconds, followed by soaking the sensors in the buffer for 180 seconds allow for dissociation. Finally, the ForteBio data analysis software was applied to calculate the kinetic binding constants (Ka, Kd, KD).
On the technique in general: Biolayer interferometry detects binding as a change in optical thickness at a sensor tip.

Data set [4] deals with T3, AR (Homo sapiens, UniProt P10275, T878A).
T3 construct: into the androgen-dependent PCa cells (LNCaP); endogenous in cells; host or cells: LNCaP-ARR2PB-eGFP
T3 sequence (P10275 1-920 T878A): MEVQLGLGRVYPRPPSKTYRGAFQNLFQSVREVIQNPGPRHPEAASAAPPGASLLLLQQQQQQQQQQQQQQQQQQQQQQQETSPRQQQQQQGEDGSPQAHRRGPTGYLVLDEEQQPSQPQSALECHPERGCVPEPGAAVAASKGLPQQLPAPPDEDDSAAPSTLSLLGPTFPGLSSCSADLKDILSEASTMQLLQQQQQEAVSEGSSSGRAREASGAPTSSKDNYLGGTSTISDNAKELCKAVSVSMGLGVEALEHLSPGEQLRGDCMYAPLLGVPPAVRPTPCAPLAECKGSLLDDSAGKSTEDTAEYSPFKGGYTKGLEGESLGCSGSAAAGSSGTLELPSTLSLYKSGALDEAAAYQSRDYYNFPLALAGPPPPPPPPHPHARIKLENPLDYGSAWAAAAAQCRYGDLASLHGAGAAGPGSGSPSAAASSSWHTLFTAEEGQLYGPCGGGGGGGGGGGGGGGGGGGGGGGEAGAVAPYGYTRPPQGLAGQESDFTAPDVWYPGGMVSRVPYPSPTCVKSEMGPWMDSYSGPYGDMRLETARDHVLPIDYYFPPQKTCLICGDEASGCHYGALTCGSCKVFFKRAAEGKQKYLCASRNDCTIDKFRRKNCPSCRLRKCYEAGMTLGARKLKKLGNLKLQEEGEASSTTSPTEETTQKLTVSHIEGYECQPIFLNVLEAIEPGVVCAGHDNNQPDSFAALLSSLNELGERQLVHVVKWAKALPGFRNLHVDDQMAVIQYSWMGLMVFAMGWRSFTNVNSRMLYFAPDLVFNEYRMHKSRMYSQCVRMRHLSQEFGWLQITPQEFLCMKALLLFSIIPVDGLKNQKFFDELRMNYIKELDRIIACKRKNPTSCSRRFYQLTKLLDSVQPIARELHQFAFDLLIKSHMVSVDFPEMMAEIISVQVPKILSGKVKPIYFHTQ
Nature of the data set: AR transcriptional activity, LNCaP-ARR2PB-eGFP reporter cells. It counts as cell-based. Conditions: LNCaP-ARR2PB-eGFP cells, 5 nM DHT, 72 hours; read-out: IC50 AR transcriptional activities. From the text:
Detection principles: We conducted a stable transfection of promoter ARR2PB known for its strong AR responsiveness, into the androgen-dependent PCa cells (LNCaP). The expression of enhanced green fluorescent protein (eGFP) is depending on the degree of activation of AR. Therefore, LNCaP-ARR2PB-eGFP cell line could quantitatively determine the AR antagonistic activities of the compounds by evaluating the expression of eGFP.

The subject of data set [5] is LNCaP xenograft. Nature of the data set: LNCaP xenograft model in vivo. Particulars: intratumor injection 2.5 mg/kg/week.
Method: as §1

Broadly, the Kd is the free concentration of one partner at which half of the binding sites on the other are occupied at equilibrium, for simple one-to-one binding. High values mean weaker binding, low ones tighter binding. The IC50 is the concentration that inhibits the measured activity by half. As for `CC(=O)Cc1nsc(NC(=O)c2cc(-c3cccc(C(F)(F)F)c3)oc2C)n1` [Compound A-1, 2-Methyl-N-(3-(2-oxopropyl)-1,2,4-thiadiazol-5-yl)-5-(3-(trifluoromethyl)phenyl)furan-3-carboxamide], the mortality entry in data set [1] is recorded as “no mortality”. In addition, in data set [2], the AR-LBD dimerization result is “inhibits AR-LBD dimerization”. The compound further displayed a Kd in data set [3] of 143 µM. Moreover, the IC50 in data set [4] came out at 30 nM. In data set [5], the body weight entry was “no significant loss of body weight”; the “tumor growth inhibition, tumor volume” value is listed as “much superior to that for Enzalutamide”; the “tumor growth inhibition, tumor weight” value is “much superior to that for Enzalutamide”.

These data come from patent US20240376091A1, “THIADIAZOLEAMIDE DERIVATIVES AND THEIR APPLICATIONS” (ZHEJIANG UNIVERSITY, priority 2021, published 2024).
